Key:
HEK‐293 = assay: MTT cytotoxicity assay in control cell line HEK-293; assay type: cell-based, human; conditions: compound alone, non-tumoral control cell line, read-out: IC50 (μM) in HEK‐293 (mean ± SD)
Experimental: (§1) TNBC cell lines (ER^−, PR^−, HER2^−)—MDA‐MB‐231 (ATCC HTB‐26) and MDA‐MB‐468 (ATCC HTB‐132) were procured from ATCC and cultured in Roswell Park Memorial Institute Media (RPMI‐1640) and Dulbecco's Modified Eagle's Medium (DMEM), respectively, supplemented with 10% FBS and 1% Penicillin–Streptomycin solution. Cells were maintained at 5% CO2 at 37°C in a humid atmosphere.[6], [26] The control cell line, Human Embryonic Kidney—HEK‐293 (ATCC CRL‐3216) was also obtained from ATCC and cultured in DMEM.[5], [25]
(§2) To evaluate the cytotoxicity profile of the potential EGFR inhibitors (compounds) against TNBC cell lines—MDA‐MB‐231, MDA‐MB‐468, and control cell line HEK293, cells were seeded at a cell density of 5 × 10^3 cells/well in complete medium onto 96‐well plates. Here, the non‐tumoral human embryonic kidney (HEK293) epithelial cells have been utilized as a control cell line to compare the IC50 values of the compounds between cancerous and non‐cancerous cell lines with a big therapeutic window. The use of HEK293 cells as compared to other non‐cancerous cell lines are easy to maintain in culture and the results obtained from HEK293 are highly reproducible and consistent.[27] Briefly, the cells were incubated at 37°C for 12 h to attain morphology. After 12 h, cells were serum starved by replacing the complete media with media containing 2% FBS to synchronize the cells. Post‐12 h of synchronization, cells were treated with an increasing concentration (0.1, 1, 10, 100 μM) of all the compounds (1a, 1b, 1c, 1d, 1e, 1f, 1g, 1h, 1i, 1j, 1k). Separately, TNBC cells were treated with increasing concentration (0.01, 0.1, 1 μM) of Doxorubicin (Sigma‐Aldrich, St Louis, MO, USA) in presence of the selected compounds (1c, 1e, 1g, 1h, 1j, and 1k) at 5 μM concentration or combination of selected compounds (1c, 1e, 1g, 1h, 1j, and 1k) at increasing concentration (1, 2.5, 5, 10 μM) in presence of Doxorubicin (0.01 μM) for 48 h. In addition, the CD24^+‐breast cancer cells and CD24^−/CD44^+‐breast CSC populations, being sorted by Magnetic Activated Cell Sorting (MACS) from MDA‐MB‐231 cells as described previously,[6] were also treated with increasing concentrations of Doxorubicin (0.01–1 μM), in the presence or absence of 1e (10–30 μM), or PD153035 (10 μM) (Sigma‐Aldrich, St Louis, MO, USA). MTT assay was performed to evaluate the cytotoxicity of these compounds against the TNBC cell lines, and the sorted populations as described previously.[6] All the experiments were performed thrice and the IC50 values of the compounds and Doxorubicin were calculated using GraphPad Prism software version 9 (San Diego, CA, USA). Similarly, the percent inhibition of the sorted cell populations by chemotherapeutic drug, doxorubicin in the absence/presence of potent compound 1e or standard EGFR inhibitor, PD153035 was evaluated utilizing GraphPad Prism Version 9 (San Diego, CA, USA).

MDA‐MB‐468 = assay: MTT cytotoxicity assay in MDA-MB-468; assay type: cell-based, human
Experimental: as §1, §2

[1] = tested on: CD44, p‐EGFR, p‐JNK, p‐p38 in tumor tissue; assay: Immunohistochemical analysis of tumor tissue (colocalization with GFP, Pearson's correlation coefficient); assay type: in vivo, C57BL/6 mice
Experimental: Animal studies have been carried out with the prior approval of the Institutional Animal Ethics Committee (IICT/IAEC/025/2023). C57BL/6 female mice of age 6–8 weeks (N = 35) were initially immunosuppressed with cyclophosphamide (50 mg/kg of body weight, i.p) on alternate days for 2 weeks. For generating a preclinical orthotopic xenograft tumor model, 2 × 10^6 GFP expressing sorted stable CD24^+‐breast cancer cells and CD24^−/CD44^+‐breast CSCs were orthotopically xeno‐transplanted subcutaneously at the fourth mammary fat pad of immune‐suppressed mice (n = 5/group). Subsequently, intratumoral administration of Doxorubicin at a low dose (2.5 mg/kg of body weight), high dose (10 mg/kg of body weight), and/or combinatorial treatment of the potent EGFR inhibitor, compound 1e (50 mg/kg of body weight) or the commercial EGFR inhibitor, PD153035 (50 mg/kg of body weight) with a low dose of doxorubicin was performed to the palpable tumors of breast CSCs at day‐3 post‐transplantation.
Immunohistochemical analysis was performed by immunostaining the tissue serial sections with primary antibodies against GFP, CD44, p‐EGFR, p‐JNK, and p‐p38 (CST, USA) followed by alexafluor‐488/555 conjugated secondary antibodies (R&D systems, USA) and mounting medium containing DAPI.[28], [29] Images were captured using a confocal microscope (Olympus FV10i, Tokyo, Japan). Pearson's correlation coefficient was utilized to determine the co‐localization of GFP/CD44, GFP/p‐EGFR, GFP/p‐JNK, and GFP/p‐p38 (Table. ST3).

## c1cncc(C(c2c[nH]c3ccccc23)c2c[nH]c3ccccc23)c1 [1e]
HEK‐293
  IC50: 278 ± 13.5 µM
MDA‐MB‐468; MDA-MB-468, versus Doxorubicin alone
  decrease in the IC50 of Doxorubicin in the presence of the compound: 10 fold
MDA‐MB‐468; compound alone, MTT, 48 h, read-out: IC50 (μM) in MDA‐MB‐468 (mean ± SD)
  IC50: 36 ± 5.91 µM
[1]; with doxorubicin low dose, CSC xenograft tumor tissue
  colocalization of GFP/p‐EGFR: decreased significantly
[1]; with low dose doxorubicin, comparable with high dose doxorubicin alone
  activation of apoptotic signaling mediators (GFP/p‐JNK, GFP/p‐p38 colocalization): increased activation
[1]; with low dose of doxorubicin, CSC xenograft tumor tissue
  colocalization of GFP and CD44 (Pearson's correlation coefficient): comparable to the high dose of doxorubicin treated group

Source: PMC10961089, “Epidermal growth factor receptor inhibition potentiates chemotherapeutics‐mediated sensitization of metastatic breast cancer stem cells” (Cancer Reports, 2024)
